Source: patent US9637460B2, “Isotopically enriched arylsulfonamide CCR3 antagonists” (Axikin Pharmaceuticals, Inc., priority 2012, dated 2017)
Like-named read-outs stand apart in the source and are kept apart here.

How the values were obtained:
[1] = Pharmacokinetic studies in rats; conditions: rat, in vivo, 3 mg/kg, 3 mg/kg in EtOH/Solutol/H2O formulation
Protocol: Pharmacokinetic properties of 4-(3,5-dichloro-2,4,6-trideuteriumphenoxy)-3-(3-oxo-piperazine-1-sulfonyl)-2,5,6-trideuteriumbenzonitrile 36 and 4-(3,5-dichlorophenoxy)-3-(3-oxo-piperazine-1-sulfonyl)benzonitrile C1 were determined using rats. Animals were randomized into two groups, each having 3 rats. 4-(3,5-Dichloro-2,4,6-trideuteriumphenoxy)-3-(3-oxo-piperazine-1-sulfonyl)-2,5,6-trideuteriumbenzonitrile 36 and 4-(3,5-dichlorophenoxy)-3-(3-oxo-piperazine-1-sulfonyl)benzonitrile C1 were administered at 3 mg/kg in EtOH/Solutol/H2O formulations. Pharmacokinetic parameters of 4-(3,5-dichloro-2,4,6-trideuteriumphenoxy)-3-(3-oxo-piperazine-1-sulfonyl)-2,5,6-trideuteriumbenzonitrile 36 and 4-(3,5-dichlorophenoxy)-3-(3-oxo-piperazine-1-sulfonyl)benzonitrile C1 are summarized in Table 2. 4-(3,5-dichlorophenoxy)-3-(3-oxo-piperazine-1-sulfonyl)benzonitrile C1 was synthesized according to the procedure as described in U.S. Pat. App. Pub. No.: US 2011/0218207, the disclosure of which is incorporated herein by reference in its entirety.

N#Cc1ccc(Oc2cc(Cl)cc(Cl)c2)c(S(=O)(=O)N2CCNC(=O)C2)c1 [Compound C1, 4-(3,5-dichlorophenoxy)-3-(3-oxo-piperazine-1-sulfonyl)benzonitrile, reference compound]
Cmax ([1]; Rat 1): 34.4 ng/mL
Tmax ([1]; Rat 1): 2 h
half-life ([1]; Rat 1): 5.52 h
AUC ([1]; Rat 1, read-out: AUC): 200 ng·h/mL
AUC ([1]; Rat 1, read-out: AUCnorm): 66.6 ng·h/mL
Cmax ([1]; Rat 2): 65.8 ng/mL
Tmax ([1]; Rat 2): 4 h
half-life ([1]; Rat 2): 3.72 h
AUC ([1]; Rat 2, read-out: AUC): 450 ng·h/mL
AUC ([1]; Rat 2, read-out: AUCnorm): 150 ng·h/mL
Cmax ([1]; Rat 3): 59.9 ng/mL
Tmax ([1]; Rat 3): 2 h
half-life ([1]; Rat 3): 4.04 h
AUC ([1]; Rat 3, read-out: AUC): 317 ng·h/mL
AUC ([1]; Rat 3, read-out: AUCnorm): 106 ng·h/mL

[2H]c1c(Cl)c([2H])c(Oc2c([2H])c([2H])c(C#N)c([2H])c2S(=O)(=O)N2CCNC(=O)C2)c([2H])c1Cl [Compound 36, 4-(3,5-dichloro-2,4,6-trideuteriumphenoxy)-3-(3-oxo-piperazine-1-sulfonyl)-2,5,6-trideuteriumbenzonitrile]
Cmax ([1]; Rat 1): 166 ng/mL
Tmax ([1]; Rat 1): 2 h
half-life ([1]; Rat 1): 3.3 h
AUC ([1]; Rat 1, read-out: AUC): 820 ng·h/mL
AUC ([1]; Rat 1, read-out: AUCnorm): 273 ng·h/mL
Cmax ([1]; Rat 2): 46.3 ng/mL
Tmax ([1]; Rat 2): 4 h
half-life ([1]; Rat 2): 1.12 h
AUC ([1]; Rat 2, read-out: AUC): 272 ng·h/mL
AUC ([1]; Rat 2, read-out: AUCnorm): 90.6 ng·h/mL
Cmax ([1]; Rat 3): 128 ng/mL
Tmax ([1]; Rat 3): 0.3 h
half-life ([1]; Rat 3): 1.51 h
AUC ([1]; Rat 3, read-out: AUC): 490 ng·h/mL
AUC ([1]; Rat 3, read-out: AUCnorm): 163 ng·h/mL
melting point: 207 to 210 °C
